Results on 4 molecules are retold here after ChEMBL document CHEMBL1201862, “PubChem BioAssay data set” (2004).

Molecules are shown by their SMILES. The source made the active and inactive calls.

The test system of one test is HeLa. In words: viability loss in HeLa cells – cell-based, 24 h, cherry-picked samples, cytotoxicity control, dose response (AID 504726).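 Note: potency for cytotoxicity as loss of luminescence signal.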 It counts as functional. To be noted: Homo sapiens.
A further test deals with T1, Protein RecA (Mycobacterium tuberculosis, UniProt P9WHJ3).
T1 sequence (P9WHJ3 whole entry): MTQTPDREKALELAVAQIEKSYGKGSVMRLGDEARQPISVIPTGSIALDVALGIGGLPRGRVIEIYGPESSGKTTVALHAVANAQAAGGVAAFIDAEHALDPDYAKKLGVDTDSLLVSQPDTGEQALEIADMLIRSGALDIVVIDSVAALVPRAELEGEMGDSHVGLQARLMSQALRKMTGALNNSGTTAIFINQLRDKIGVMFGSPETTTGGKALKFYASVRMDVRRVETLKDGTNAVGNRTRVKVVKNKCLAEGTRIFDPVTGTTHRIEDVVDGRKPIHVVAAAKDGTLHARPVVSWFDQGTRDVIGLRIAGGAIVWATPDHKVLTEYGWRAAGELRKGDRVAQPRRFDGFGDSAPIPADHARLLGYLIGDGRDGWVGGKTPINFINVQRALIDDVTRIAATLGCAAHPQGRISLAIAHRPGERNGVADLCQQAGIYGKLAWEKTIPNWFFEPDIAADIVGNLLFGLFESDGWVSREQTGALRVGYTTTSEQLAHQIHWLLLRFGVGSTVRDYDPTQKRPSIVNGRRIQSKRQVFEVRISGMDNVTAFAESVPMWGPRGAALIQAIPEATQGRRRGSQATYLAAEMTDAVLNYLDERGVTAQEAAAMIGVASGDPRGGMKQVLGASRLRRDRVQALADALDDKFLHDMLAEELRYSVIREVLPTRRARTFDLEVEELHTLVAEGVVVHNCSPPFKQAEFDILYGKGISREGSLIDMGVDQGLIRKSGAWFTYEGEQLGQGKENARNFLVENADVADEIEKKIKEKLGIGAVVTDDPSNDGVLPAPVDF
The test can be described thus: Fluorescence Cell-Free Homogeneous Dose Retest to Identify Inhibitors of RecA-Intein Splicing Activity. [Related pubchem assays (depositor defined):AID2097, AID2223, AID489010, AID492950]. Type of test: functional.

Test [1] has as its target T2, 1-phosphatidylinositol 4,5-bisphosphate phosphodiesterase beta-3 (Homo sapiens, UniProt Q01970).
T2 sequence (Q01970 whole entry): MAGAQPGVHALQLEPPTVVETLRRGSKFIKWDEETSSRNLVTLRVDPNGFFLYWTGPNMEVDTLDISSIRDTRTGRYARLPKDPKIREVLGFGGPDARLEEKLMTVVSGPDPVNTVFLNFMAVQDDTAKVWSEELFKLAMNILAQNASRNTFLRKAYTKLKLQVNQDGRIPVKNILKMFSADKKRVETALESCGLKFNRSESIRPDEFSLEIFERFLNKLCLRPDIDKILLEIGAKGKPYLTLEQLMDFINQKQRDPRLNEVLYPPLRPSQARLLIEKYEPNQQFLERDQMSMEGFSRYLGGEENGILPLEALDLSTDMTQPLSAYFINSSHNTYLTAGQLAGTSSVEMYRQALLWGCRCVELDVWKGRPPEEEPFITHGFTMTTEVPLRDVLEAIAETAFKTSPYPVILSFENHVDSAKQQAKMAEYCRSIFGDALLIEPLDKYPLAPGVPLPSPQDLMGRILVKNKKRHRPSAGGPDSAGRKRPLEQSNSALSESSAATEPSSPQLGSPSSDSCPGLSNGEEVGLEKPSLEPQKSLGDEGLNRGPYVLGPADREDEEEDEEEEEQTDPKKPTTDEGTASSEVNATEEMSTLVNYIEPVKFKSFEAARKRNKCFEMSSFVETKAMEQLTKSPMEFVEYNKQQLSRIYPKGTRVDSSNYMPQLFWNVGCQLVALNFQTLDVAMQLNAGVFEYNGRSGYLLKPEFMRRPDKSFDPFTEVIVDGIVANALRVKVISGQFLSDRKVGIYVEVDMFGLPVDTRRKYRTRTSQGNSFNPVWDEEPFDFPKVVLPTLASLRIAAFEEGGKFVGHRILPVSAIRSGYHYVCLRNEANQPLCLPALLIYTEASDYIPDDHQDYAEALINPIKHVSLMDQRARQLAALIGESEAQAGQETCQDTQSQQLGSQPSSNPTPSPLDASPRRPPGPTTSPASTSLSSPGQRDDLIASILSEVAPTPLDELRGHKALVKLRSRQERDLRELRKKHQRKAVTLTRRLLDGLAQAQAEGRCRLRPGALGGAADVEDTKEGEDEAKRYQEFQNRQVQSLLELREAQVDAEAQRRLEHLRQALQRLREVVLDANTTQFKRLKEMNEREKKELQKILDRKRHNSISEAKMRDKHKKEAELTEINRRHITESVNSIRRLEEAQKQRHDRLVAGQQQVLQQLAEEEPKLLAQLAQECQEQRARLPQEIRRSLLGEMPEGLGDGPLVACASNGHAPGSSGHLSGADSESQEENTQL
In words: Fluorescence-based biochemical high throughput dose response assay to identify inhibitors of phospholipase C isozymes (PLC-B3).

In test [2] the target is T3, Tyrosine-protein phosphatase non-receptor type 22 (Homo sapiens, UniProt Q9Y2R2).
T3 sequence (Q9Y2R2 whole entry): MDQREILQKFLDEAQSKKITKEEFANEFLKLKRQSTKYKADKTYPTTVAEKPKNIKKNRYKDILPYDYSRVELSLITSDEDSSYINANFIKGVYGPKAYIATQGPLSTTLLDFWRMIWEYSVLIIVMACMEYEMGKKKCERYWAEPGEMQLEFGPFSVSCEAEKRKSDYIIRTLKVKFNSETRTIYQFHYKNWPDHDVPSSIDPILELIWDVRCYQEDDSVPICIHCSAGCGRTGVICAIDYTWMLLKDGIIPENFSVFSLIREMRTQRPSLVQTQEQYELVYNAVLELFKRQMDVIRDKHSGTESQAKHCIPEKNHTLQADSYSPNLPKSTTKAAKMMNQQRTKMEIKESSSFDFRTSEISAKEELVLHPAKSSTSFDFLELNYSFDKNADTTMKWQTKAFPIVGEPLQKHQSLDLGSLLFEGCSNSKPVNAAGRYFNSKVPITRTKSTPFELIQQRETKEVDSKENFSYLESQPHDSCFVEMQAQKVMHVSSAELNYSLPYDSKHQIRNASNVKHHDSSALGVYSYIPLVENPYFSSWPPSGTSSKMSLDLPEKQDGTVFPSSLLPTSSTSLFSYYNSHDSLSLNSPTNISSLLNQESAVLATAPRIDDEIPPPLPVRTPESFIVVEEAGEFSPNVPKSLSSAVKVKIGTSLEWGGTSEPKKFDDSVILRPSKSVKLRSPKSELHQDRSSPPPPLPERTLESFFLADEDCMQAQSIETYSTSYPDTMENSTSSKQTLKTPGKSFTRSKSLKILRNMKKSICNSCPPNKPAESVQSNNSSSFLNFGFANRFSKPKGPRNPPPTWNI
The test can be described thus: PTPN22 lymphoid phosphatase activity blockers – biochemical, fluorescence intensity, uHTS (AID 1779).

The nature of test [3]: DRD fibroblast viability loss – cell-based, non-viral oncogenic, luminescence, dose response (AID 1934). Type of test: functional. Particulars: Homo sapiens.
A further test concerns Vero. The test can be described thus: viability of Vero cells under compound – cytotoxicity control for flavivirus capping enzyme inhibitors (AID 588742). Particulars: Chlorocebus sabaeus. It counts as functional.

As to `CCN(CC)CCN1C(=O)c2cccc3cc(N)cc(c23)C1=O`, the AC50 (commonly the concentration giving half of the maximal activity seen) in the test with HeLa was 109 µM (active). For the same molecule, the EC50 – broadly, the concentration at which the effect is half-maximal – on Protein RecA was 0.209 µM (active).
As to `O=C(O)c1cccc(-n2cccc2/C=C2/NC(=O)N(c3ccc(Cl)cc3)C2=O)c1`, the figures for the IC50 in test [1] and in test [2] were > 122 µM (inactive) and 5.47 µM (active), respectively.
`C=C1C(=O)O[C@@H]2C[C@@H](C)[C@@H]3C=CC(=O)[C@@]3(C)[C@@H](OC(=O)CC(=O)O[C@H]3[C@@H]4C(=C)C(=O)O[C@@H]4C[C@@H](C)[C@@H]4C=CC(=O)[C@]43C)[C@H]12`: the figures for the EC50 (in test [3]; at Protein RecA) were 0.332 µM (inconclusive) and 46 µM (active), respectively. The CC50 (as a rule, the concentration that lowers cell viability or growth by half) in the test on Vero is 1.64 µM (active).
With `O=S(=O)(O)c1cc(Cl)cc(N=Nc2ccc(O)cc2O)c1O`, the IC50 (commonly the concentration that gives 50% inhibition) in test [1] was > 122 µM (inactive).
